In patent US20120202885A1, “METHODS, ASSAYS AND COMPOSITIONS FOR TREATING RETINOL-RELATED DISEASES” (ReVision Therapeutics, Inc., priority 2004, published 2012):

Columns and labels:
[1] = target: retinol-RBP-TTR complex (Homo sapiens, UniProt P02753); experiment: High-throughput FRET assay for RBP/TTR interaction; type: binding; settings: conditions as for HPR, FIG. 6
Text: Reduction of serum retinol and RBP are correlated with concomitant reductions in toxic lipofuscin fluorophores. Because compounds that affect RBP-TTR interaction will directly affect fluorophore levels in the eye, a high-throughput screen for small molecules which prevent interaction of RBP with TTR was developed. This screen employs probe-labeled forms of RBP and TTR which participate in a unique fluorescence resonance energy transfer (FRET) event when complexed. Compounds which interfere with RBP-TTR interaction prevent FRET. Sample spectra taken during the course of this type of assay are shown, in FIG. 4. […] The sample is incubated at 37° C. for 30 min and then illuminated with 330 nm light. The emission spectra are shown in the range of 400-600 nm. HPR binds to RBP and prevents interaction with TTR, and here this property of HPR is utilized here to validate the ability of this screen to detect inhibition of RBP-TTR interaction. […] Additionally, the design of this assay permits discrimination between compounds which interact with RBP versus those which interact with TTR. Thus, by using two distinct excitation energies (280 nm and 330 nm, for protein and retinol, respectively) and implementing simultaneous monitoring of the retinol and TTR-probe fluorescence, the “target” of a presumptive small molecule can be easily determined.
Accordingly, HPR was employed at varied concentrations (from 0-4 μM), using the conditions specified in Example 7, to evaluate the high throughput assay.
The mechanism of action underlying this effect can be explained by the disruption of RBP-TTR interactions. In order to explore this possibility and to further validate the RBP-TTR screen, the effects of all-trans retinoic and 13-cis retinoic acid, using the conditions the conditions specified for analysis of HPR, were examined.

[2] = target: TTR binding to RBP (Homo sapiens, UniProt P02753); experiment: Size exclusion study of transthyretin (TTR) binding to RBP; settings: 10 μM Apo-RBP; for binding of ligand-RBP to TTR: gel filtration, 360/330 nm absorbance
Protocol: Apo-RBP at 10 μM was incubated with […] in PBS at room temperature for 1 hour. 10 μM of TTR was then added to the solution, and the mixture was incubated for another hour at room temperature. […] of the sample mixtures with and without TTR addition were analyzed by BioRad Bio-Sil SEC 125 Gel Filtration Column (300×7.8 mm). In control experiments, atROL-RBP and atROL-RBP-TTR mixture were analyzed in the same manner.

[3] = system: ABCA4−/− mice; experiment: Drug holiday after 28 days of HPR: A2E and precursors in eyecup extracts (HPLC); type: in vivo; settings: 28-day drug holiday
Protocol: HPR (10 mg/kg in DMSO) was administered to ABCA4−/− mice daily for a period of 28 days. Control ABCA4−/− mice received only DMSO for the same period. […] Importantly, the observed reductions in lipofuscin autofluorescence persist long after cessation of HPR therapy. HPR (10 mg/kg), or DMSO, administration was discontinued following 28 days of treatment and re-evaluated A2E and precursor levels after 2 weeks and after 4 weeks.
We examined eyecup extracts by HPLC and employed detection by absorbance and fluorimetry. Identity of the indicated peaks was confirmed by on-line spectral analysis and by co-elution with authentic standards. […] Further, the A2E and precursor (A2PE-H2 and A2PE) levels after a […] or 28-day drug holiday remained at or near the levels immediately following 28 days of treatment (i.e., ca. 50% reduction relative to control), although after the 28-day drug holiday, the amount of A2E and precursor (A2PE-H2 and A2PE) had increased by a few percentage points relative to the 12-day drug holiday levels. […] It is clear that peak fluorescence tracks with the abundance of A2E, A2PE and A2PE-H2.

[4] = target: Retinol Binding Protein (RBP) (Homo sapiens, UniProt P02753); experiment: Fluorescence quenching study of MPR binding to retinol binding protein
Protocol: Apo-RBP at 0.5 μM was incubated with 0, 0.25, 0.5, 1 and 2 μM of MPR in PBS at room temperature for 1 hour, respectively. As controls, the same concentration of Apo-RBP was also incubated with 1 μM of HPR or 1 μM of atROL. All mixtures contained 0.2% Ethanol (v/v). The emission spectra were measured between 290 nm to 550 nm with excitation wavelength at 280 nm and 3 nm bandpass.

[5] = several investigators; Berni et al. 1993; cited from earlier work

## CC1=C(/C=C/C(C)=C/C=C/C(C)=C\C(=O)O)C(C)(C)CCC1 [13-cis retinoic acid, 13-cis-retinoic acid]
[1]
  inhibition of RBP-TTR interaction: inhibitors of RBP-TTR interaction

## COc1ccc(NC(=O)\C=C(C)/C=C/C=C(C)\C=C\C2=C(C)CCCC2(C)C)cc1 (stereo in doubt) [MPR, N-(4-methoxyphenyl)retinamide]
[2]
  binding of RBP to ligand (360 nm absorbance in RBP elution peak): RBP binds to MPR
[2]; 10 μM TTR
  effect on binding of TTR to RBP: inhibits the binding of TTR to RBP
  binding of ligand-RBP to TTR: did not bind to TTR
[3]
  detection of HPR or HPR metabolites in the eyes: unable to detect
[4]; 0.5 μM Apo-RBP, 0-2 μM MPR, room temperature 1 hour, excitation 280 nm
  quenching of RBP fluorescence: concentration-dependent quenching
[4]; controls at 1 μM
  degree of quenching compared with other ligands: smaller than those by atROL and HPR
[4]; for 0.5 μM of RBP
  concentration at which quenching saturated: 1 µM

## CC1=C(/C=C/C(C)=C/C=C/C(C)=C/CO)C(C)(C)CCC1 [atROL, all-trans retinol]
[2]; 10 μM TTR
  binding of ligand-RBP to TTR: binds to TTR
[4]; 1 μM ligand, 0.5 μM Apo-RBP
  binding to RBP: bind to RBP

## CC1=C(/C=C/C(C)=C/C=C/C(C)=C/C(=O)O)C(C)(C)CCC1 [all-trans retinoic, all-trans-retinoic acid]
[5]
  reduction in circulating RBP and retinol: observed in vivo
[1]
  inhibition of RBP-TTR interaction: inhibitors of RBP-TTR interaction
